Assay results from US20220325239A1, “CELL CULTURE” (AGENCY FOR SCIENCE, TECHNOLOGY AND RESEARCH, priority 2019, published 2022).

Tests used:
[1] = tested on: FINE cells; experiment: Withdrawal or replacement of AZD5438 / Dasatinib in FINE culture; type: cell-based, human; details: for sustaining feeder-free naïve hESCs when replacing Dasatinib in FINE: 2 passages; for morphology after withdrawal from FINE: withdrawal for 3 passages
Text: FIG. 4A is a diagram showing brightfield and immunofluorescence staining of KLF4, TFE3 and KLF17 in FINE culture after withdrawal of AZD, Dasa or both for 3 passages. Scale bar=50 μm.
FIG. 4B is a diagram showing quantification of fraction of nuclei positive for naïve-associated transcription factors in hESCs cultured in FINE after withdrawal of AZD, Dasa or both for 3 passages. Mean±SD of three independent experiments.
FIG. 4C is a diagram showing expression of blastocyst-associated transcripts in hESCs cultured in FINE after withdrawal of AZD, Dasa or both for 2 passages. Mean±SD of three independent qPCR experiments.
FIG. 4D and FIG. 4E are diagrams showing expression of blastocyst-associated transcripts in hESCs cultured in FINE after (D) replacement of Dasa with other Src and Bcr-Abl inhibitors or (E) replacement of AZD with Dinaciclib (in H9 line) for 2 passages. Mean±SD of three independent qPCR experiments.
Therefore, we wanted to test if both are also important for the maintenance of naivety in FINE.

[2] = tested on: hESC; experiment: Adaptation and survival of feeder-free hESCs in 4iLA supplemented with chemical combinations (C1-C21); type: cell-based, human; details: condition 19 background
Text: FIG. 2C is a diagram showing relative survival of hESC culture under 4 iLA supplemented with different chemical combinations conditions (C1-C21) over 9 passages without feeders. 4 iLA was included as control.
We next sought to find a condition that enables stable naïve culture by adapting feeder-free primed hESCs onto media supplemented by one or more of the hits at various concentrations (FIG. 2C, Table E2, below).

[3] = tested on: naïve hESCs; experiment: Naïve pluripotency marker expression after short-term supplementation of hits upon feeder withdrawal (qPCR); type: cell-based, human
Text: 3iL and 4 iLA media were supplemented with small molecule compounds at various concentrations for single and combinatory treatments. Small molecules used in the study: Dasatinib (Selleckchem), AZD5438 (TOCRIS), CHIR-98014 (Sigma), Crenolanib (Selleckchem), Saracatinib (Selleckchem), Src Inhibitor-1 (Sigma), Nilotinib (STEMCELL Technologies), Imatinib (STEMCELL Technologies), Dinaciclib (Selleckchem), WH-4-023 (Sigma).
(§1) Total RNA was extracted using TRIzol reagent (Invitrogen) according to manufacturer's protocol followed by DNAase I treatment (Ambion).
(§2) 250-1000 ng of DNAase treated RNA was reverse transcribed using SuperScript II (Invitrogen) and oligo-dT primers (Invitrogen) according to manufacturer's instructions. Reactions were performed in final volume of 20μ1. cDNA was diluted before qPCR analysis.
qPCR was performed using KAPA SYBR FAST master mix (KAPA Biosystem) following standard procedures. qPCR reactions were performed in biological duplicates or triplicates in 384-well plates on the ViiA™ 7 Real-Time PCR System (Life Technologies). Two technical replicates were carried out for each qPCR reaction and data was normalised to GAPDH. The relative abundance of transcripts was calculated using ΔΔC(T) method. […]

[4] = tested on: LTR7Y-zsGreen reporter cells; experiment: High-throughput small molecule screen for feeder-free maintenance of naïve hESCs (LTR7Y-zsGreen fluorescence); type: cell-based, human; details: 3iL without feeders
Experimental: 3,000 cells cultured in mTeSR1 (STEMCELL Technologies) or 3iL were seeded per well into 384-well plates (Greiner) coated with 30× Matrigel (Corning) or 30× growth factor reduced Matrigel (Corning) in 45 µl of medium. 4 hours after seeding, cells were treated with anti-cancer and anti-kinase libraries (Selleckchem; kinase inhibitor screening library—customised collection of 273 kinase inhibitors, anti-cancer compound library—customized collection of 349 bioactive compounds). Small molecules were used at 3 different concentrations: 100 nM, 1 μM and 10 μM for each condition. 48 hours after the treatment, culture media was renewed concomitant with a second round of treatment with the compounds. […] Images were processed and fluorescence signal was quantified using Columbus Image Data Storage and Analysis System (PerkinElmer). […] Z-score for zsGreen fluorescence was calculated using formula: z=(X−μ)/s.d. where μ—mean, s.d.—standard deviation of whole population, X−integrated intensity of zsGreen divided by total number of cells. […]
We first ensured the quality of the screen by certifying the absence of intra-plate layout biases (FIG. 8I), proper inter-plate alignment (FIG. 8J) and good correlation between replicates (FIG. 8K). Z-scores were then calculated, and compounds that reproducibly scored above noise (z>2 in at least 2 replicates) were regarded as hits (FIG. 1B, S1L). […]

[5] = tested on: human cancer cultures; details: broad spectrum of human cancer cultures; cited from earlier work
[6] = tested on: cellular CDK substrates; details: cited from earlier work
[7] = tested on: human tumor xenograft; details: oral, 50 mg/kg/12 h or 75 mg/kg/day, mice; cited from earlier work
[8] = tested on: H9 cells; experiment: Karyotyping / cytogenetic analysis; type: cell-based, human; details: PD0325901 reduced from 1 μM to 0.3 μM
Experimental: FIG. 7B is a diagram showing summary of cytogenetic analysis of H9 cells (top) under various naïve culture conditions (rows) and passage numbers (columns). Representative karyotypes at various passage numbers in FINE (bottom).
Various hESCs lines were seeded into glass cover slip slides as single cells. Karyotyping service including colcemid treatment and G-band analysis was outsourced with Parkway Laboratory Services.

[9] = tested on: hESCs; experiment: Expression of naïve / blastocyst / 8-cell markers under culture conditions (qPCR, immunofluorescence); type: cell-based, human; details: PD0325901 reduced from 1 μM to 0.3 μM, H9
Experimental: as §1, §2
qPCR was performed using KAPA SYBR FAST master mix (KAPA Biosystem) following standard procedures. qPCR reactions were performed in biological duplicates or triplicates in 384-well plates on the ViiA™ 7 Real-Time PCR System (Life Technologies). Two technical replicates were carried out for each qPCR reaction and data was normalised to GAPDH. The relative abundance of transcripts was calculated using ΔΔC(T) method.
Before fixation with 4% formaldehyde (Sigma) cells were washed with PBS (Gibco) in tissue culture plates (Falcon) for 30 minutes at room temperature. Permeabilization was performed with 1% of Triton-X 100 in PBS followed by blocking step performed in blocking buffer (blocking buffer—8% FBS in PBS-T (PBS-T 1% Tween in PBS)) each for 30 minutes at room temperature. Cells were incubated with primary antibodies, diluted in blocking buffer, overnight at 4° C. with gentle agitation. […]

COc1ccc(N(C(=O)Oc2c(C)cccc2C)c2ccnc(Nc3ccc(N4CCN(C)CC4)cc3)n2)c(OC)c1 [WH-4-023]
sustaining feeder-free naïve hESCs when replacing Dasatinib in FINE [1]: failed to sustain | requirement for adaptation and maintenance of feeder-free naïve cells [2]: dispensable

Cc1nc(Nc2ncc(C(=O)Nc3c(C)cccc3Cl)s2)cc(N2CCN(CCO)CC2)n1.O [Dasatinib, N-(2-chloro-6-methylphenyl)-2-[[6-[4-(2-hydroxyethyl)-1-piperazinyl]-2-methyl-4-pyrimidinyl]amino]-5-thiazole carboxamide monohydrate]
effect on downregulation of naïve pluripotency markers ([3]; 4iLA, RNA after 12 days): had the same effect | outcome of the screen (hit) [4]: identified novel regulators of naïve pluripotency | loss of naivety upon withdrawal from FINE ([1]; compared with AZD5438 withdrawal): more pronounced effect | morphology after withdrawal from FINE [1]: caused dispersal of the compact morphology

Cc1cn(-c2cc(NC(=O)c3ccc(C)c(Nc4nccc(-c5cccnc5)n4)c3)cc(C(F)(F)F)c2)cn1 [Nilotinib]
sustaining feeder-free naïve hESCs when replacing Dasatinib in FINE [1]: failed to sustain

COc1cc2ncnc(Nc3ccc(Oc4ccccc4)cc3)c2cc1OC [SRCi]
sustaining feeder-free naïve hESCs when replacing Dasatinib in FINE [1]: failed to sustain

Cc1ncc(-c2ccnc(Nc3ccc(S(C)(=O)=O)cc3)n2)n1C(C)C [AZD5438, 4-[2-Methyl-1-(1-methylethyl)-1H-imidazol-5-yl]-N-[4-(methylsulfonyl)phenyl]-2-pyrimidinamine]
antiproliferation activity [5]: displays antiproliferation activity | effect on downregulation of naïve pluripotency markers including LTR7Y ([3]; 3iL, RNA after 6 days): consistently attenuated downregulation | outcome of the screen (hit) [4]: identified novel regulators of naïve pluripotency | morphology after withdrawal from FINE [1]: caused dispersal of the compact morphology | inhibition of cellular CDK substrates phosphorylation [6]: effectively inhibits | efficacy against human tumor xenograft growth [7]: efficacious

Cc1ccc(NC(=O)c2ccc(CN3CCN(C)CC3)cc2)cc1Nc1nccc(-c2cccnc2)n1 [Imatinib]
sustaining feeder-free naïve hESCs when replacing Dasatinib in FINE [1]: failed to sustain

O=C(NOC[C@H](O)CO)c1ccc(F)c(F)c1Nc1ccc(I)cc1F [PD0325901, N-[(2R)-2,3-dihydroxypropoxy]-3,4-difluoro-2-(2-fluoro-4-iodoanilino)benzamide]
effect of lowered concentration in FINE on acquisition of chromosomal abnormalities [8]: further delayed acquisition of chromosomal abnormalities | effect of lowered concentration in FINE on naïve pluripotent marker expression [9]: slight adverse effect
